{"source": "patent US20120015961A1", "about": "“ISOTHIOUREA DERIVATIVES OR ISOUREA DERIVATIVES HAVING BACE1 INHIBITORY ACTIVITY” (SHIONOGI & CO., LTD., priority 2009, published 2012)", "key": {"[1]": {"tested_on": "Salmonella typhimurium (TA98 and TA100 strain)", "assay": "FAT test", "format": "cell-based", "design": "key: (−) means that mutagenicity is negative; (+) means positive", "details": "TA98 and TA100, with and without metabolic activation system", "experimental": "Each 20 μL of freeze-stored Salmonella typhimurium (TA98 and TA100 strain) was inoculated in 10 mL of liquid nutrient medium (2.5% Oxoid nutrient broth No. 2), and the cultures were incubated at 37° C. under shaking for 10 hours. 9 mL of TA98 culture was centrifuged (2000×g, 10 minutes) to remove medium, and the bacteria was suspended in 9 mL of Micro F buffer (K2HPO4: 3.5 g/L, KH2PO4: 1 g/L, (NH4)2SO4: 1 g/L, trisodium citrate dehydrate: 0.25 g/L, MgSO4.7H2O: 0.1 g/L), and the suspension was added to 110 mL of Exposure medium (Micro F buffer containing Biotin: 8 μg/mL, histidine: 0.2 μg/mL, glucose: 8 mg/mL). 3.16 mL of TA100 culture was added to 120 mL of Exposure medium to prepare the test bacterial solution. […] The number of the yellow wells among the 48 total wells per dose was counted, and evaluated the mutagenicity by comparing with the negative control group. […]"}, "Recombinant human BACE1": {"molecular_target": "T1, Recombinant human BACE1 (Homo sapiens, UniProt P56817)", "T1 construct": "purchased R&D Systems", "T1 sequence (P56817 46-501)": "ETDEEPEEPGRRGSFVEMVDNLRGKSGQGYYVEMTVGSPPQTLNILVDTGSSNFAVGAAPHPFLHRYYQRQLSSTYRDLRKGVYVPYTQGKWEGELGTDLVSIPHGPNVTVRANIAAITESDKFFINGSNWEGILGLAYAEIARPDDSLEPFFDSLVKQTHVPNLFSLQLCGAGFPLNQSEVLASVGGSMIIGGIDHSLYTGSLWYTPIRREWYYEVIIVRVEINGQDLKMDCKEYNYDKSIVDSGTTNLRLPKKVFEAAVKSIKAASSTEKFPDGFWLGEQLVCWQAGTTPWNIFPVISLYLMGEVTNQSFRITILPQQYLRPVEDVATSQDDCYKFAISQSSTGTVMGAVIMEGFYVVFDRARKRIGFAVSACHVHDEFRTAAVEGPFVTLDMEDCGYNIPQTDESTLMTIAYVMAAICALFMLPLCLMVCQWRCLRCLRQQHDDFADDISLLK", "assay": "Assay of BACE1 inhibiting activity", "format": "biochemical", "details": "50% inhibitory concentration against enzymatic activity, pH 5.0, 30° C., 3 hours", "in_short": "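Recombinant human BACE1 (7.4 nM) incubated with 18 nM biotinylated Eu-cryptate peptide substrate in pH 5.0 sodium acetate, 3 h at 30 °C. Streptavidin-XL665 added, 1 h; TR-FRET 665/620 nm ratio gives activity, from which IC50 is calculated.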"}, "[2]": {"tested_on": "Neuroblastoma SH-SY5Y cells (SH/APPwt) with human wild-type β-APP excessively expressed", "assay": "Measurement of β-amyloid (Aβ) production inhibitory effect in cell", "format": "cell-based", "details": "Homo sapiens, SH-SY5Y, 24 h, amount needed to inhibit Aβ production by 50%, 24 hours incubation, Amyloid β1-40 HTRF", "in_short": "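SH-SY5Y cells overexpressing human wild-type β-APP exposed to compound for 24 h at 37 °C in 1% final DMSO. Secreted Aβ1-40 in supernatant measured by HTRF (overnight at 4 °C; 665/620 nm ratio). IC50 derived from at least six concentrations.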"}}}
{"compound": "CO/C(N)=N\\C1(c2cccc(NC(=O)c3ccc(C#N)cn3)c2)CC1", "note": "[Compound 44]", "values": [{"measurement": "mutagenicity", "setting": "[1]", "value": "(−)"}, {"measurement": "IC50", "setting": "Recombinant human BACE1", "value": "≤ 1000", "unit": "nM"}, {"measurement": "IC50", "setting": "[2]", "value": "≤ 1000", "unit": "nM"}]}
